Tests used:
[1] = test system: pCHK1 (S345) in Colo320 DM cells; assay: Alphalisa assay, detection of pCHK1 (S345) in Colo320 DM cells; assay type: cell-based, human; conditions: Homo sapiens, COLO 320DM, compound overnight (approximately 16 hours)
Outline: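 Phospho-CHK1 (S345) read by AlphaLisa SureFire in lysates of human colorectal Colo320 DM cells. Compound treatment ran overnight (~16 h, 37 °C, DMSO <0.5%) on cells seeded the day before.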

[2] = test system: human hepatocytes; assay: Human hepatocyte stability assay; assay type: in vitro ADME; conditions: 0.5×10^6 viable cells/ml, time points 0.5 and 60 minutes
Procedure: 1. 10 mM stock solutions of test compounds and positive control were prepared in DMSO. Thawing medium and supplement incubation medium (serum-free) were placed in a 37° C. water bath for at least 15 minutes prior to use.
2. Stock solutions were diluted to 100 μM by combining 198 μL acetonitrile and 2 μL of 10 mM stock solution. Verapamil was use as positive control in the assay.
3. Vials of cryopreserved human hepatocytes were removed from storage, while ensuring that vials remain at cryogenic temperatures. The pressure was removed by loosening and re-tightening the cap. The vials were thawed in a 37° C. water bath with gentle shaking. Vials remained in the water bath until all ice crystals had dissolved and were no longer visible. Vials were sprayed with 70% ethanol before being transferred to a biosafety cabinet. Then the contents were poured into a 50 mL thawing medium conical tube. Vials were centrifuged at 100 g for 10 minutes at room temperature. Thawing medium was aspirated and hepatocytes were re-suspended with serum-free incubation medium to yield ˜1.5×10^6 cells/mL.
4. Cell viability and density were counted using Cellometer® Vision, and then cells were diluted with serum-free incubation medium to a working cell density of 0.5×10^6 viable cells/ml.
5. Aliquots of 198 μL hepatocytes were dispensed into each well of a 96-well non-coated plate. The plate was placed in the incubator on an orbital shaker at 500 rpm for approximately 10 minutes.
6. Aliquots of 2 μL of the 100 μM test compounds or verapamil were added into respective wells of the non-coated 96-well plate to start the reaction. This assay was performed in duplicate. The plate was incubated in the incubator on an orbital shaker at 500 rpm for the designed time points.
7.25 μL of contents were transferred and mixed with 5 volumes (125 μL) of cold acetonitrile with IS (100 nM alprazolam, 200 nM caffeine, 100 nM labetalol and 100 nM tolbutamide) to terminate the reaction at time points of 0.5 and 60 minutes. Samples were centrifuged for 30 minutes at 3,220 g. Then transfer 100 μL of the supernatant to new 96-well plates for analysis. Add 100 μL of distilled water to each sample and mix for analysis by LC-MS/MS.
All calculations were carried out using Microsoft Excel. Peak areas were determined from extracted ion chromatograms. The in vitro half-life (tin) of the parent compound was determined by regression analysis of the percent parent disappearance vs. time curve. • a. The in vitro half-life (in vitro tin) was determined from the slope value: in vitro t1/2=0.693/k • b. Conversion of the in vitro tin (in min) into the in vitro intrinsic clearance (in vitro CLint, in μL/min/10^6 cells) was done using the following equation: […]

[3] = biological target: T1, RNR (RNR1:RNR2 1:1) (Homo sapiens, UniProt P23921); assay: RNR enzyme activity, rapid-fire mass spectrometry (RF/MS) assay; assay type: biochemical; conditions: [RNR] 50 nM, 1:1 RNR1:RNR2; CDP 5 μM; ATP 1 mM; 37° C., 45 min; compounds screened up to 50 μM
T1 sequence (P23921 1-792): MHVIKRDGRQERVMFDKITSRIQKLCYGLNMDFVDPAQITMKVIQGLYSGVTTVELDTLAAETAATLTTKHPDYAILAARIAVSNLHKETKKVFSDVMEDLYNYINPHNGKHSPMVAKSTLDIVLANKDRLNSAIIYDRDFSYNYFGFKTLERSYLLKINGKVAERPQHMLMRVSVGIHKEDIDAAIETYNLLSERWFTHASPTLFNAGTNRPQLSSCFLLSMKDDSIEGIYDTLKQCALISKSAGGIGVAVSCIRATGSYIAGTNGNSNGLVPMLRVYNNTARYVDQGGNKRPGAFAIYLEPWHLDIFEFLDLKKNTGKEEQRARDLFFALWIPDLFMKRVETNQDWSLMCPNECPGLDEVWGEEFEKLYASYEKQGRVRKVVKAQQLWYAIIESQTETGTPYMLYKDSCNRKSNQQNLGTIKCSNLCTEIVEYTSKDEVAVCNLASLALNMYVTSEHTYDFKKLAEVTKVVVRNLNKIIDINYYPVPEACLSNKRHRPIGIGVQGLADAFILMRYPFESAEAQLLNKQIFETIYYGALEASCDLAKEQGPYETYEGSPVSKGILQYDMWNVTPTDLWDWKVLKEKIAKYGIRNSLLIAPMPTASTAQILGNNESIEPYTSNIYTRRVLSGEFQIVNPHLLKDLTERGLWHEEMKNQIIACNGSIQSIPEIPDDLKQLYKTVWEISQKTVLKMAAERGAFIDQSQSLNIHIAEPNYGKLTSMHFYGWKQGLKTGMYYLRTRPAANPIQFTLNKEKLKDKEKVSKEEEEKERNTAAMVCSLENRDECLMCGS
Outline: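 Human RNR (50 nM final, RNR1:RNR2 1:1) pre-incubated 15 min at room temperature, then reacted 45 min at 37 °C with 5 μM CDP and 1 mM ATP, no NADPH. Reaction quenched with 6% HCOOH; product quantified by rapid-fire mass spectrometry.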

SMILES | IC50 [1] [nM] | Clhep [2] | IC50 [3] [nM]
Cc1ccc(F)c([C@@H](C)[C@@H](c2n[nH]c(=O)o2)N2CN(C3CCOC(C)(C)C3)c3cc(Cl)ccc3S2(=O)=O)c1C (single isomer, unassigned) [Example 89] | ≤ 1000 | B (10 ml/min/kg < Clhep ≤ 20 ml/min/kg) | –
Cc1ccc(F)c([C@@H](C)[C@@H](c2n[nH]c(=O)o2)N2CN([C@H]3CCOC(C)(C)C3)c3cc(Cl)ccc3S2(=O)=O)c1C (single isomer, unassigned) [Example 90] | ≤ 1000 | B (10 ml/min/kg < Clhep ≤ 20 ml/min/kg) | –
Cc1ccc(F)c([C@@H](C)[C@@H](c2n[nH]c(=O)o2)N2CN(C)c3cc(Cl)ccc3S2(=O)=O)c1C [Example 1, 5-((1S,2R)-1-(6-chloro-4-methyl-1,1-dioxido-3,4-dihydro-2H-benzo[e][1,2,4]thiadiazin-2-yl)-2-(6-fluoro-2,3-dimethylphenyl)propyl)-1,3,4-oxadiazol-2(3H)-one] | ≤ 1000 | A (0 ml/min/kg ≤ Clhep ≤ 10 ml/min/kg) | < 20
Cc1ccc(F)c([C@@H](C)[C@@H](c2n[nH]c(=O)o2)N2CCOc3cc(Cl)ccc3S2(=O)=O)c1C [Example 2, 5-((1S,2R)-1-(7-chloro-1,1-dioxido-3,4-dihydro-2H-benzo[b][1,4,5]oxathiazepin-2-yl)-2-(6-fluoro-2,3-dimethylphenyl)propyl)-1,3,4-oxadiazol-2(3H)-one] | 1000 to 5000 | A (0 ml/min/kg ≤ Clhep ≤ 10 ml/min/kg) | < 20
Cc1ccc(F)c([C@@H](C)[C@@H](c2n[nH]c(=O)o2)N2CN(C)c3nc(Cl)ccc3S2(=O)=O)c1C [Example 3, 5-((1S,2R)-1-(6-chloro-4-methyl-1,1-dioxido-3,4-dihydro-2H-pyrido[2,3-e][1,2,4]thiadiazin-2-yl)-2-(6-fluoro-2,3-dimethylphenyl)propyl)-1,3,4-oxadiazol-2 (3H)-one] | ≤ 1000 | B (10 ml/min/kg < Clhep ≤ 20 ml/min/kg) | < 20
Cc1ccc(F)c([C@@H](C)[C@@H](c2n[nH]c(=O)o2)N2CN(CCN3CCCC3)c3nc(Cl)ccc3S2(=O)=O)c1C [Example 92, 5-((1S,2R)-1-(6-chloro-1,1-dioxido-4-(2-(pyrrolidin-1-yl)ethyl)-3,4-dihydro-2H-pyrido[2,3-e][1,2,4]thiadiazin-2-yl)-2-(6-fluoro-2,3-dimethylphenyl)propyl)-1,3,4-oxadiazol-2 (3H)-one] | 1000 to 5000 | A (0 ml/min/kg ≤ Clhep ≤ 10 ml/min/kg) | –
Cc1ccc(F)c([C@@H](C)[C@@H](c2n[nH]c(=O)o2)N2CN(CCN3CCOCC3)c3nc(Cl)ccc3S2(=O)=O)c1C [Example 93, 5-((1S,2R)-1-(6-chloro-4-(2-morpholinoethyl)-1,1-dioxido-3,4-dihydro-2H-pyrido[2,3-e][1,2,4]thiadiazin-2-yl)-2-(6-fluoro-2,3-dimethylphenyl)propyl)-1,3,4-oxadiazol-2 (3H)-one] | ≤ 1000 | A (0 ml/min/kg ≤ Clhep ≤ 10 ml/min/kg) | –
Cc1ccc(F)c([C@@H](C)[C@@H](c2n[nH]c(=O)o2)N2CN(CCN3CCN(C)CC3)c3cc(Cl)ccc3S2(=O)=O)c1C [Example 105, 5-((1S,2R)-1-(6-chloro-4-(2-(4-methylpiperazin-1-yl)ethyl)-1,1-dioxido-3,4-dihydro-2H-benzo[e][1,2,4]thiadiazin-2-yl)-2-(6-fluoro-2,3-dimethylphenyl)propyl)-1,3,4-oxadiazol-2 (3H)-one] | 1000 to 5000 | – | < 20
Cc1ccc(F)c([C@@H](C)[C@@H](c2n[nH]c(=O)o2)N2CN([C@H]3CCN(CCF)C3)c3cc(Cl)ccc3S2(=O)=O)c1C [Example 106, 5-((1S,2R)-1-(6-chloro-4-((S)-1-(2-fluoroethyl)pyrrolidin-3-yl)-1,1-dioxido-3,4-dihydro-2H-benzo[e][1,2,4]thiadiazin-2-yl)-2-(6-fluoro-2,3-dimethylphenyl)propyl)-1,3,4-oxadiazol-2 (3H)-one] | ≤ 1000 | – | < 20
CON1CN([C@H](c2n[nH]c(=O)o2)[C@H](C)c2c(F)ccc(C)c2C)S(=O)(=O)c2ccc(Cl)cc21 [Example 116, 5-((1S,2R)-1-(6-chloro-4-methoxy-1,1-dioxido-3,4-dihydro-2H-benzo[e][1,2,4]thiadiazin-2-yl)-2-(6-fluoro-2,3-dimethylphenyl)propyl)-1,3,4-oxadiazol-2 (3H)-one] | ≤ 1000 | B (10 ml/min/kg < Clhep ≤ 20 ml/min/kg) | –
Cc1ccc(F)c([C@@H](C)[C@@H](c2n[nH]c(=O)o2)N2CN([C@H](C)CO)c3cc(Cl)ccc3S2(=O)=O)c1C [Example 117, 5-((1S,2R)-1-(6-chloro-4-((R)-1-hydroxypropan-2-yl)-1,1-dioxido-3,4-dihydro-2H-benzo[e][1,2,4]thiadiazin-2-yl)-2-(6-fluoro-2,3-dimethylphenyl)propyl)-1,3,4-oxadiazol-2 (3H)-one] | 1000 to 5000 | B (10 ml/min/kg < Clhep ≤ 20 ml/min/kg) | –
Cc1ccc(F)c([C@@H](C)[C@@H](c2n[nH]c(=O)o2)N2CN(C3CC(=O)C3)c3cc(Cl)ccc3S2(=O)=O)c1C [Example 118, 5-((1S,2R)-1-(6-chloro-1,1-dioxido-4-(3-oxocyclobutyl)-3,4-dihydro-2H-benzo[e][1,2,4]thiadiazin-2-yl)-2-(6-fluoro-2,3-dimethylphenyl)propyl)-1,3,4-oxadiazol-2 (3H)-one] | ≤ 1000 | B (10 ml/min/kg < Clhep ≤ 20 ml/min/kg) | –
Cc1ccc(F)c([C@@H](C)[C@@H](c2n[nH]c(=O)o2)N2CN(O)c3cc(Cl)ccc3S2(=O)=O)c1C [Example 120, 5-((1S,2R)-1-(6-chloro-4-hydroxy-1,1-dioxido-3,4-dihydro-2H-benzo[e][1,2,4]thiadiazin-2-yl)-2-(6-fluoro-2,3-dimethylphenyl)propyl)-1,3,4-oxadiazol-2 (3H)-one] | 1000 to 5000 | B (10 ml/min/kg < Clhep ≤ 20 ml/min/kg) | –
Cc1ccc(F)c([C@@H](C)[C@@H](c2n[nH]c(=O)o2)N2CN([C@@H](C)CO)c3cc(Cl)ccc3S2(=O)=O)c1C [Example 121, 5-((1S,2R)-1-(6-chloro-4-((S)-1-hydroxypropan-2-yl)-1,1-dioxido-3,4-dihydro-2H-benzo[e][1,2,4]thiadiazin-2-yl)-2-(6-fluoro-2,3-dimethylphenyl)propyl)-1,3,4-oxadiazol-2 (3H)-one] | ≤ 1000 | B (10 ml/min/kg < Clhep ≤ 20 ml/min/kg) | –

— patent publication US20260085067A1, “CYCLIC SULFONAMIDE RIBONUCLEOTIDE REDUCTASE (RNR) INHIBITORS AND USES THEREOF” (Boundless Bio, Inc., priority 2022, published 2026)
